In ChEMBL document CHEMBL1140562, “Anti-AIDS agents 73: structure-activity relationship study and asymmetric synthesis of 3-O-monomethylsuccinyl-betulinic acid derivatives” (Bioorg Med Chem Lett, 2007):
Activity calls are given as the source filed them. The rule behind the calls is not given here.

Assays:
MT2 = test: Cytotoxicity against MT2 cells by XTT assay; assay type: functional, cell-based; conditions: Homo sapiens
[1] = system: Human immunodeficiency virus 1; test: Antiviral activity against HIV1; assay type: functional, organism-based
[2] = Therapeutic index, ratio of IC50 for MT2 cells to EC50 for HIV1; assay type: cell-based; conditions: human, read-out: Ratio IC50/EC50

SMILES | IC50 (MT2) | Activity [1] | EC50 [1] | selectivity ratio [2]
C=C(C)[C@@H]1CC[C@]2(C(=O)O)CC[C@]3(C)[C@H](CC[C@@H]4[C@@]5(C)CC[C@H](OC(=O)[C@H](C)CC(=O)O)C(C)(C)[C@@H]5CC[C@]43C)[C@@H]12 | > 43.8 µM | inactive | – | –
C=C(C)[C@@H]1CC[C@]2(C(=O)O)CC[C@]3(C)[C@H](CC[C@@H]4[C@@]5(C)CC[C@H](OC(=O)CC(C)(C)C(=O)O)C(C)(C)[C@@H]5CC[C@]43C)[C@@H]12 [BEVIRIMAT] | > 42.8 µM | – | 0.0013 µM | 30600
C=C(C)[C@@H]1CC[C@]2(C(=O)O)CC[C@]3(C)[C@H](CC[C@@H]4[C@@]5(C)CC[C@H](OC(=O)C[C@H](C)CO)C(C)(C)[C@@H]5CC[C@]43C)[C@@H]12 | > 44.9 µM | inactive | – | –
C=C(C)[C@@H]1CC[C@]2(C(=O)O)CC[C@]3(C)[C@H](CC[C@@H]4[C@@]5(C)CC[C@H](OC(=O)CC(C)C(=O)O)C(C)(C)[C@@H]5CC[C@]43C)[C@@H]12 (stereo partly specified) | > 44.9 µM | – | 0.016 µM | 5320
C=C(C)[C@@H]1CC[C@]2(C(=O)O)CC[C@]3(C)[C@H](CC[C@@H]4[C@@]5(C)CC[C@H](OC(=O)C[C@@H](C)C(=O)O)C(C)(C)[C@@H]5CC[C@]43C)[C@@H]12 | > 43.8 µM | – | 0.12 µM | 961
Cc1cn([C@H]2C[C@H](N=[N+]=[N-])[C@@H](CO)O2)c(=O)[nH]c1=O [ZIDOVUDINE] | 1870 µM | – | 0.34 µM | –
C=C(C)[C@@H]1CC[C@]2(C(=O)O)CC[C@]3(C)[C@H](CC[C@@H]4[C@@]5(C)CC[C@H](OC(=O)C[C@H](C)C(=O)O)C(C)(C)[C@@H]5CC[C@]43C)[C@@H]12 | 32.8 µM | – | 0.0087 µM | 6270
C=C(C)[C@@H]1CC[C@]2(C(=O)O)CC[C@]3(C)[C@H](CC[C@@H]4[C@@]5(C)CC[C@H](OC(=O)[C@@H](C)CC(=O)O)C(C)(C)[C@@H]5CC[C@]43C)[C@@H]12 | > 43.8 µM | – | 0.44 µM | 100
